molecular target: T1, Activated human C1s (Homo sapiens, UniProt P09871); test: In vitro inhibition of C1s (Ki determination, C1s-catalyzed hydrolysis of Z-Gly-Arg-S-Bzl, DTNB readout); assay type: biochemical; settings: substrate Z-Gly-Arg-S-Bzl 45 μM, DTNB 200 μM, C1s 2.3 nM, pH 7.5, 37° C., absorbance at 405 nm
T1 construct: purchased Calbiochem (La Jolla, Calif.)
T1 sequence (P09871 438-688 limits assumed): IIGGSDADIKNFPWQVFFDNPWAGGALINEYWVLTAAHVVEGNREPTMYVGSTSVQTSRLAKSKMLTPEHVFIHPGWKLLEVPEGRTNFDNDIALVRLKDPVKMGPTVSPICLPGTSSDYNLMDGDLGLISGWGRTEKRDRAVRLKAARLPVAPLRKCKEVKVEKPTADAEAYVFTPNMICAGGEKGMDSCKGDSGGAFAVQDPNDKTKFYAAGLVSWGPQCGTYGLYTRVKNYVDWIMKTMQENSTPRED
T1 sequence (P09871 16-437 partner limits assumed): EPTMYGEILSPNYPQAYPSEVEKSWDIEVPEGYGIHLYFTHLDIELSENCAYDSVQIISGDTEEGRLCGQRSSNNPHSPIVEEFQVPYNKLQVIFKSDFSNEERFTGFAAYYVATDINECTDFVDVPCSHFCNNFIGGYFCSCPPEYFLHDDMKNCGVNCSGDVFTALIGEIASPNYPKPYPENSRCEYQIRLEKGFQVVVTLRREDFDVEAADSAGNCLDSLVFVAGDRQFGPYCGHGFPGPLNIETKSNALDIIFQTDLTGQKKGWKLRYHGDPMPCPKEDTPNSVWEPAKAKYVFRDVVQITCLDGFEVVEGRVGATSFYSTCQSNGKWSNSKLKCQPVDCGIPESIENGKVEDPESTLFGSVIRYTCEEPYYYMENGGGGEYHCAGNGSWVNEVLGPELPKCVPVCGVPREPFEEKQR
Experimental: Reagents: All buffer salts were obtained from Sigma Chemical Company (St. Louis, Mo.), and were of the highest purity available. DTNB was purchased from Pierce (Rockford, Ill.). Z-Gly-Arg-S-Bzl was purchased from Enzyme Systems Products (Livermore, Calif.). Activated human C1s was purchased from Calbiochem (La Jolla, Calif.).
Test compounds are prepared as a 10 μM solution in DMSO. Dilutions are prepared in DMSO yielding 7 final concentrations encompassing a 700-fold concentration range.
Reactions were initiated by the addition of a 10 μL aliquot of the enzyme, and the absorbance increase at 405 nm is continuously recorded for 15 minutes in a Molecular Devices plate reader. Final DMSO concentration was 4.3%. […] The ratio of the velocity (rate of change in absorbance as a function of time) for a sample containing no test compound is divided by the velocity of a sample containing test compound, and is plotted as a function of test compound concentration. The data are fit to a linear regression, and the value of the slope of the line calculated. The inverse of the slope is the experimentally determined Ki value.

Ki, 0.006 to 0.023 µM:
CSc1sc(C(=N)N)cc1S(=O)(=O)c1cccc(-c2cnc3ccccc3c2)c1 [Example 73, 5-Methylsulfanyl-4-(3-quinolin-3-yl-benzenesulfonyl)-thiophene-2-carboxamidine]
COC(=O)c1ccc(-c2cccc(S(=O)(=O)c3cc(C(=N)N)sc3SC)c2)cc1 [Example 74, 3′-(5-Carbamimidoyl-2-methylsulfanyl-thiophene-3-sulfonyl)-biphenyl-4-carboxylic acid methyl ester]
CSc1sc(C(=N)N)cc1S(=O)(=O)c1cccc(-c2cc(C)cc(C)c2)c1 [Example 75, 4-(3′,5′-Dimethyl-biphenyl-3-sulfonyl)-5-methylsulfanyl-thiophene-2-carboxamidine]
CSc1sc(C(=N)N)cc1S(=O)(=O)c1cccc(-c2ccco2)c1 [Example 76, 4-(3-Furan-2-yl-benzenesulfonyl)-5-methylsulfanyl-thiophene-2-carboxamidine]
CSc1sc(C(=N)N)cc1S(=O)(=O)c1cccc(-c2cccc([N+](=O)[O-])c2)c1 [Example 78, 5-Methylsulfanyl-4-(3′-nitro-biphenyl-3-sulfonyl)-thiophene-2-carboxamidine]
CSc1sc(C(=N)N)cc1S(=O)(=O)c1cccc(-c2ccc(O)cc2)c1 [Example 79, 4-(4′-Hydroxy-biphenyl-3-sulfonyl)-5-methylsulfanyl-thiophene-2-carboxamidine]
CSc1sc(C(=N)N)cc1S(=O)(=O)c1cccc(-c2ccc(C=O)cc2)c1 [Example 80, 4-(4′-Formyl-biphenyl-3-sulfonyl)-5-methylsulfanyl-thiophene-2-carboxamidine]
CSc1sc(C(=N)N)cc1S(=O)(=O)c1cccc(-c2ccc(F)cc2)c1 [Example 81, 4-(4′-Fluoro-biphenyl-3-sulfonyl)-5-methylsulfanyl-thiophene-2-carboxamidine]
CSc1sc(C(=N)N)cc1S(=O)(=O)c1cccc(-c2ccc(-c3ccccc3)c(F)c2)c1 [Example 82, 4-(2′-Fluoro-[1,1′;4′,1″]terphenyl-3″-sulfonyl)-5-methylsulfanyl-thiophene-2-carboxamidine]
CSc1sc(C(=N)N)cc1S(=O)(=O)c1cccc(-c2ccc(CO)cc2)c1 [Example 83, 4-(4′-hydroxymethyl-biphenyl-3-sulfonyl)-5-methylsulfanyl-thiophene-2-carboxamidine]
CSc1sc(C(=N)N)cc1S(=O)(=O)c1cccc(-c2ccc(C#N)cc2)c1 [Example 84, 4-(4′-cyano-biphenyl-3-sulfonyl)-5-methylsulfanyl-thiophene-2-carboxamidine]
CSc1sc(C(=N)N)cc1S(=O)(=O)c1cccc(-c2ccc(C(C)=O)cc2)c1 [Example 85, 4-(4′-acetyl-biphenyl-3-sulfonyl)-5-methylsulfanyl-thiophene-2-carboxamidine]
CSc1sc(C(=N)N)cc1S(=O)(=O)c1cccc(-c2ccc(N(C)C)cc2)c1 [Example 86, 4-(4′-dimethylamino-biphenyl-3-sulfonyl)-5-methylsulfanyl-thiophene-2-carboxamidine]
C=Cc1ccccc1-c1cccc(S(=O)(=O)c2cc(C(=N)N)sc2SC)c1 [Example 87, 5-methylsulfanyl-4-(2′-vinyl-biphenyl-3-sulfonyl)-thiophene-2-carboxamidine]
CCOc1ccc(-c2cccc(S(=O)(=O)c3cc(C(=N)N)sc3SC)c2)cc1 [Example 88, 4-(4′-ethoxy-biphenyl-3-sulfonyl)-5-methylsulfanyl-thiophene-2-carboxamidine]
CSc1sc(C(=N)N)cc1S(=O)(=O)c1cccc(-c2c(C)noc2C)c1 [Example 89, 4-[3-(3,5-dimethyl-isoxazol-4-yl)-benzenesulfonyl]-5-methylsulfanyl-thiophene-2-carboxamidine]
CSc1sc(C(=N)N)cc1S(=O)(=O)c1cccc(-c2ccccc2C)c1 [Example 90, 4-(2′-methyl-biphenyl-3-sulfonyl)-5-methylsulfanyl-thiophene-2-carboxamidine]
CSc1sc(C(=N)N)cc1S(=O)(=O)c1cccc(-c2cccc3ccccc23)c1 [Example 91, 5-methylsulfanyl-4-(3-naphthalen-1-yl-benzenesulfonyl)-thiophene-2-carboxamidine]
CSc1sc(C(=N)N)cc1S(=O)(=O)c1cccc(-c2ccc(Cl)s2)c1 [Example 92, 4-[3-(5-Chloro-thiophen-2-yl)-benzenesulfonyl]-5-methylsulfanyl-thiophene-2-carboxamidine]
CSc1sc(C(=N)N)cc1S(=O)(=O)c1cccc(-c2ccccc2C=O)c1 [Example 93, 4-(2′-formyl-biphenyl-3-sulfonyl)-5-methylsulfanyl-thiophene-2-carboxamidine]
C=Cc1ccc(-c2cccc(S(=O)(=O)c3cc(C(=N)N)sc3SC)c2)cc1 [Example 94, 5-methylsulfanyl-4-(4′-vinyl-biphenyl-3-sulfonyl)-thiophene-2-carboxamidine]
CCOc1cccc(-c2cccc(S(=O)(=O)c3cc(C(=N)N)sc3SC)c2)c1 [Example 95, 4-(3′-ethoxy-biphenyl-3-sulfonyl)-5-methylsulfanyl-thiophene-2-carboxamidine]
CSc1sc(C(=N)N)cc1S(=O)(=O)c1cccc(-c2c(C)cccc2C)c1 [Example 96, 4-(2′,6′-dimethyl-biphenyl-3-sulfonyl)-5-methylsulfanyl-thiophene-2-carboxamidine]
CSc1sc(C(=N)N)cc1S(=O)(=O)c1cccc(-c2cccc(C(C)C)c2)c1 [Example 98, 4-(3′-isopropyl-biphenyl-3-sulfonyl)-5-methylsulfanyl-thiophene-2-carboxamidine]
CSc1sc(C(=N)N)cc1S(=O)(=O)c1cccc(-c2cccc(C)c2C)c1 [Example 99, 4-(2′,3′-dimethyl-biphenyl-3-sulfonyl)-5-methylsulfanyl-thiophene-2-carboxamidine]
CSc1sc(C(=N)N)cc1S(=O)(=O)c1cccc(-c2cccc(Cl)c2Cl)c1 [Example 100, 4-(2′,3′-dichloro-biphenyl-3-sulfonyl)-5-methylsulfanyl-thiophene-2-carboxamidine]
CSc1sc(C(=N)N)cc1S(=O)(=O)c1cccc(-c2cccc(C(C)=O)c2)c1 [Example 101, 4-(3′-acetyl-biphenyl-3-sulfonyl)-5-methylsulfanyl-thiophene-2-carboxamidine]
CCOC(=O)c1cccc(-c2cccc(S(=O)(=O)c3cc(C(=N)N)sc3SC)c2)c1 [Example 102, 3′-(5-carbamimidoyl-2-methylsulfanyl-thiophene-3-sulfonyl)-biphenyl-3-carboxylic acid ethyl ester]
CSc1sc(C(=N)N)cc1S(=O)(=O)c1cccc(-c2cccc(C(=O)N(C)C)c2)c1 [Example 103, 3′-(5-carbamimidoyl-2-methylsulfanyl-thiophene-3-sulfonyl)-biphenyl-3-carboxylic acid dimethylamide]
CSc1sc(C(=N)N)cc1S(=O)(=O)c1cccc(-c2cccc(C(N)=O)c2)c1 [Example 104, 3′-(5-carbamimidoyl-2-methylsulfanyl-thiophene-3-sulfonyl)-biphenyl-3-carboxylic acid amide]
CSc1sc(C(=N)N)cc1S(=O)(=O)c1cccc(-c2ccc3[nH]cnc3c2)c1 [Example 106, 4-[3-(1H-benzoimidazol-5-yl)-benzenesulfonyl]-5-methylsulfanyl-thiophene-2-carboxamidine]
CSc1sc(C(=N)N)cc1S(=O)(=O)c1cccc(-c2ccccc2N)c1 [Example 107, 4-(2′-amino-biphenyl-3-sulfonyl)-5-methylsulfanyl-thiophene-2-carboxamidine]

Reference: patent publication US7109354B2, “Thiophene amidines, compositions thereof, and methods of treating complement-mediated diseases and conditions” (3-Dimensional Pharmaceuticals, Inc., priority 2002, dated 2006)
